Data on five molecules can be found in ChEMBL document CHEMBL1833828, “Efficient conversion of a nonselective norepinephrin reuptake inhibitor into a dual muscarinic antagonist-β₂-agonist for the treatment of chronic obstructive pulmonary disease” (J Med Chem, 2011).

Data set [1] concerns the target T1, Sodium-dependent noradrenaline transporter (Homo sapiens, UniProt P23975). The experiment in a line: Displacement of [3H]nisoxetine from human NET receptor.
The nature of data set [2]: Lipophilicity, log D of the compound. It counts as physicochemical. The settings on record: octanol/water.
Data set [3] addresses T2, Muscarinic acetylcholine receptor M3 (Homo sapiens, UniProt P20309). The experiment in a line: Displacement of [3H]N-methylscopolamine from human M3 receptor.
Target sequence in this assay (P20309 whole entry): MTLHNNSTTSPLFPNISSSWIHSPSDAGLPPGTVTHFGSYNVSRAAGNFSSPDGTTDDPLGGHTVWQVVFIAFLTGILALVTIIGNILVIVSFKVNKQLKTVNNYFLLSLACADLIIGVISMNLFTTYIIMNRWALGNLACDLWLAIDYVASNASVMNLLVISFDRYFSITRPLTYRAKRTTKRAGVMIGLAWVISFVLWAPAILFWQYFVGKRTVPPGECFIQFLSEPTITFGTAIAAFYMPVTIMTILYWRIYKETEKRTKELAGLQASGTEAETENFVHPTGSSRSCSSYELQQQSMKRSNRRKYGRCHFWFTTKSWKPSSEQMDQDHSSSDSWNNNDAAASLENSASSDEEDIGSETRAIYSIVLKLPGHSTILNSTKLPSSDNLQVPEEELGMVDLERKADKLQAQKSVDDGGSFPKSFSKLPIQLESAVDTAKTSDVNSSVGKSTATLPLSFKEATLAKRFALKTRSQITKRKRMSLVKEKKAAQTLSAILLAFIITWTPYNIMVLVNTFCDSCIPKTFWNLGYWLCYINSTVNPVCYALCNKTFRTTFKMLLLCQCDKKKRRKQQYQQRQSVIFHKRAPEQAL
A short description of data set [4]: Metabolic stability in human liver microsomes. The conditions noted are these: read-out: Stability. The class given is ADME, Microsome.
Data set [5] deals with T1, Sodium-dependent noradrenaline transporter. In words: Binding affinity at human NET receptor at 10 uM.
Another data set is filed under the species Cavia porcellus. In words: Bronchodilatory action in guinea pig trachea assessed as inhibition of electrical field-stimulated acetylcholine release. The class given is functional.
The nature of data set [6]: Bronchodilatory action against electrical field-stimulated constriction in guinea pig trachea assessed as time taken for the muscle tone at EC70 to recover by 50% of inhibition induced. It counts as functional, Cavia porcellus.
The nature of data set [7]: Bronchodilatory action in guinea pig trachea assessed as inhibition of electrical field-stimulated acetylcholine release in the presence of beta-2 adrenergic receptor antagonist propranolol. The class given is functional, tissue-based, Cavia porcellus.
Data set [8] addresses T3, Beta-2 adrenergic receptor (Homo sapiens, UniProt P07550). In words: Agonist activity at human cloned beta-2 adrenergic receptor expressed in CHO cells after compound wash-out relative to unwashed cells. It counts as functional, cell-based.
Target sequence in this assay (P07550 whole entry, looked up): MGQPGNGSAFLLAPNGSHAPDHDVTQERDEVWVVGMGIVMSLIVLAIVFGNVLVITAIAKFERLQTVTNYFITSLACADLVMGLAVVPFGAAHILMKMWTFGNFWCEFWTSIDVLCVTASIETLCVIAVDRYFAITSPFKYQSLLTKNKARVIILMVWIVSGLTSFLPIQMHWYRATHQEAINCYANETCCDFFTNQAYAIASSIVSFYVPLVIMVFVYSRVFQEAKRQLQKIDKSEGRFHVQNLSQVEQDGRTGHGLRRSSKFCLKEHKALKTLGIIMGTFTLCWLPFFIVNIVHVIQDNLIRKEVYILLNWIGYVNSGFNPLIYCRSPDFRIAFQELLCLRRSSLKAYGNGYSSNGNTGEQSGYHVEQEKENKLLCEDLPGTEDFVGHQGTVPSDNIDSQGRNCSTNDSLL
Data set [9] can be described thus: Permeability across human Caco2 cells. It counts as ADME, cell-based. The settings on record: Caco-2, read-out: permeability.
A short description of data set [10]: Bronchodilatory action against electrical field-stimulated constriction in guinea pig trachea assessed as time taken for the muscle tone at EC70 to recover by 50% of inhibition induced in the presence of beta-2 adrenergic receptor antagonist propranolol. It counts as functional, Cavia porcellus.
Data set [11] has as its target Beta-1 adrenergic receptor (Homo sapiens, UniProt P08588). In words: Agonist activity at beta-1 adrenergic receptor. The class given is functional.
Data set [12] deals with T3, Beta-2 adrenergic receptor. In words: Agonist activity at human beta-2 adrenergic receptor expressed in CHO cells assessed as induction of intracellular cAMP production. The class given is functional, cell-based.
Target sequence in this assay (P07550 whole entry): as the sequence (P07550 whole entry, looked up) above
The target of data set [13] is T2, Muscarinic acetylcholine receptor M3. In words: Antagonist activity at human cloned M3 receptor assessed as time taken to reach 50% of total [3H]NMS for solvent treated membranes by dilution-offset method. The class given is functional.
Target sequence in this assay (P20309 whole entry, looked up): as the sequence (P20309 whole entry) above

T1 sequence (P23975 whole entry): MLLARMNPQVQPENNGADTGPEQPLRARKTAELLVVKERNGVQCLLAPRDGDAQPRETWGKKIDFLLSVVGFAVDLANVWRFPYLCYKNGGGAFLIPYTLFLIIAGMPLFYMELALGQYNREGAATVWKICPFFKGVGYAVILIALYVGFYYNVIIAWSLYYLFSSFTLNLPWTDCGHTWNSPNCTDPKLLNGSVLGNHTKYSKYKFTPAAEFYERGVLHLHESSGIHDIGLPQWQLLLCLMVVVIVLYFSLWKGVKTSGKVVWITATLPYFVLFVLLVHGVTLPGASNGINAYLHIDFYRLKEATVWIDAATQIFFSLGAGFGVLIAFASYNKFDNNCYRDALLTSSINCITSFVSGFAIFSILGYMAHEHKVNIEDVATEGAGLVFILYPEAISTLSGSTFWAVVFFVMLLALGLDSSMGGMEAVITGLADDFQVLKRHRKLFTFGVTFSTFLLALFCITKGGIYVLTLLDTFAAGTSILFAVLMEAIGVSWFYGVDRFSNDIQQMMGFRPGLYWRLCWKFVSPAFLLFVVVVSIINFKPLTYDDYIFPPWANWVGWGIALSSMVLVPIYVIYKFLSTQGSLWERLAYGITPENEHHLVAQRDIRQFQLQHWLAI
Chain of Beta-1 adrenergic receptor (P08588 whole entry): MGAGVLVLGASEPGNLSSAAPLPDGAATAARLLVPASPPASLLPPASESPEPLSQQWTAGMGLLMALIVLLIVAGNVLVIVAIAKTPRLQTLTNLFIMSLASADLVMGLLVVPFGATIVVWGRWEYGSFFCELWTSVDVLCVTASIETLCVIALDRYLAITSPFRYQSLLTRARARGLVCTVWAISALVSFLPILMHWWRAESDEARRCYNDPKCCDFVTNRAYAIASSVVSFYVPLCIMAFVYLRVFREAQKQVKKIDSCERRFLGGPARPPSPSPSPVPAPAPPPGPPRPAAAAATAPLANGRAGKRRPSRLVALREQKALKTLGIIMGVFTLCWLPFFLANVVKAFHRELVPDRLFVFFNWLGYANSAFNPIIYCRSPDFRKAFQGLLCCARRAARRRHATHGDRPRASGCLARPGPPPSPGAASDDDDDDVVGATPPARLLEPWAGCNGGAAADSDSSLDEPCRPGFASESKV

Take `Oc1cccc(F)c1-n1nc(OC2CCNCC2)c2c1CCCC2`: the Ki stood at 2900 nM in data set [1] and 2.5 nM in data set [3]. For the same molecule, in [2], the logD amounted to 0.3. Also, in data set [4], the microsomal CLint is less than 8 µL/min/mg.

Consider `Fc1cccc(F)c1-n1nc(OC2CCNCC2)c2ccccc21`, for which the values for the inhibitory constant (Ki) in [1] and in data set [3] were 6.8 nM and 49 nM, respectively. This molecule showed a logD in data set [2] of 1.4. The microsomal CLint in [4] is less than 8 µL/min/mg.

On to `Cc1ccc(O)c([C@H](CCN(C(C)C)C(C)C)c2ccccc2)c1` [TOLTERODINE], for which the Activity in data set [5] is 15%. The logD in data set [2] is 1.8. For the same molecule, the microsomal CLint in data set [4] was less than 8 µL/min/mg.

As for `Oc1cccc(F)c1-n1nc(OC2CCNCC2)c2ccccc21`, the logD in [2] came out at 0.6. The same molecule registered a Ki in data set [3] of 10 nM. In addition, in data set [4], the microsomal CLint is less than 8 µL/min/mg.

`O=c1ccc2c([C@@H](O)CNCCCCCCCCCN3CCC(Oc4nn(-c5c(O)cccc5F)c5c4CCCC5)CC3)ccc(O)c2[nH]1`: the EC50 in the data set listed under Cavia porcellus was 28 nM; in data set [7], 27 nM; in [11], greater than 10000 nM; in data set [12] it was 14 nM. Further, the Time in [6] and in data set [10] was greater than 16 h each time. The logD in data set [2] was 2.4. In data set [8], the fold change (FC) is 1.5. Besides, the Papp in data set [9] is less than 1 ×10⁻⁶ cm/s. In addition, the affinity in [3], expressed as Ki, was 2.2 nM. In addition, the microsomal CLint in data set [4] worked out at 25 µL/min/mg. Also, in data set [13], the TIME is less than 0.267 h.
